Results as given in US12678423B2, “Therapeutic agent for amyotrophic lateral sclerosis and composition for treatment” (KEIO UNIVERSITY, priority 2016, dated 2026).

Tests used:
Assay type in all cases: cell-based, human
[1] = system: motor neurons induced to differentiate from iPS cells derived from ALS patients (FUS-ALS) having a mutation in FUS; test: Neurite length, FUS-ALS motor neurons (screening, Example I-8)
Method: For each differentiation-induced motor neuron in Example I-1, the changes over time in the neurite length were measured. A Bio station CT (Nikon Corp.) was used to measure the neurite length over time. FIG. 1 is a graph showing measurement results of changes over time in the neurite length. The vertical axis represents neurite length (relative value), and the horizontal axis represents the number of days of culturing from the start of differentiation induction.
(§1) Using the differentiation-induced motor neurons in Example I-1, drugs which cause the ALS phenotype to be restored were screened from existing drug libraries with the neurite length, ectopic localization of FUS protein, stress granule formation, LDH leakage ratio, CV-caspase 3-positive ratio, phosphorylated TDP-43 protein inclusion formation, and the like as indices.
(§2) As a result of the screening, ropinirole was found as a promising therapeutic agent for ALS. Tables 5 and 6 show the improvement ratio (%) in the ALS phenotype due to adding ropinirole to the medium. Here, ropinirole was added to the medium on days 35 to 40 from the start of the differentiation induction of each iPS cell. Here, it is assumed that days 35 to 40 from the start of differentiation induction correspond to the early stage of the ALS disease.
(§3) The improvement ratio (%) of the ALS phenotype was calculated by Equation (1).
(§4) [formula] [In Equation (1), A represents a measurement value of motor neurons induced to differentiate from iPS cells derived from ALS patients in the absence of ropinirole, and B represents a measurement value of motor neurons induced to differentiate from iPS cells derived from ALS patients in the presence of ropinirole, and C represents a measurement value of motor neurons induced to differentiate from iPS cells derived from healthy subjects in the absence of ropinirole.]
(§5) Subsequently, in the same manner as above, the efficacy in cases of administering lower concentrations of ropinirole was evaluated.
(§6) Each drug was added to the medium at a final concentration of 10 μM.

[2] = system: motor neurons induced to differentiate from iPS cells derived from ALS patients (FUS-ALS) having a mutation in FUS; test: Ectopic localization of FUS protein in the cytoplasm, FUS-ALS motor neurons
From the text: Therefore, on day 40 from the start of differentiation induction, each differentiation-induced motor neuron in Example I-1 was immunostained and the localization of FUS protein in the cytoplasm was examined.
as §1, §2, §3, §4, §5, §6

[3] = system: motor neurons induced to differentiate from iPS cells derived from SALS patients; test: Neurite length, sporadic ALS model (Example III-1); settings: final concentration 1 μM, days 35 to 40, measured on day 40, FIG. 10
From the text: (§7) In the same manner as in Example I-1, iPS cells derived from sporadic ALS (may be referred to below as “SALS”) patients were differentiated into motor neurons. All the iPS cells used were derived from dermal fibroblasts. Below, each differentiated motor neuron is identified by the patient number from whom the neuron was derived.
(§8) In the same manner as in Example II-1, iPS cells derived from sporadic ALS (SALS) patients were induced to differentiate into motor neurons, and then ropinirole with a final concentration of 1 μM was added to the medium. More specifically, for the period of days 35 to 40 from the start of differentiation induction, ropinirole having a final concentration of 1 μM was added to the medium. In addition, a group for which ropinirole was not added to the medium was prepared as a control. In addition, for comparison, iPS cells derived from healthy subjects were differentiated into motor neurons in the same manner as in Example I-1. No ropinirole was added to the medium of these motor neurons. As the iPS cells derived from a healthy subject, the same cells as used in Example I-1 were used.
Subsequently, on day 40 from the start of differentiation induction, the neurite length was measured for each motor neuron in the same manner as in Example I-2.
FIG. 10 is a graph showing measurement results of the neurite length of each motor neuron. […]

[4] = system: motor neurons induced to differentiate from iPS cells derived from SALS patients; test: CV caspase 3-positive ratio, sporadic ALS model (Example III-2); settings: final concentration 1 μM, days 35 to 40, measured on day 40, FIG. 11
From the text: as §7, §8
Subsequently, on day 40 from the start of differentiation induction, the ratio of CV caspase 3-positive neurons was measured for each motor neuron in the same manner as in Example I-3.
FIG. 11 is a graph showing the measurement results of the ratio of CV caspase 3-positive neurons. […]

[5] = system: motor neurons induced to differentiate from iPS cells derived from SALS patients; test: LDH leakage ratio, sporadic ALS model (Example III-3); settings: final concentration 1 μM, days 35 to 40, measured on day 40, FIG. 12
From the text: as §7, §8
Subsequently, on day 40 from the start of differentiation induction, the LDH leakage ratio was measured for each motor neuron in the same manner as in Example I-4.
FIG. 12 is a graph showing the measurement result of the LDH leakage ratio. […]

[6] = system: motor neurons induced to differentiate from iPS cells derived from ALS patients (TDP-43-ALS) having a mutation in TDP-43; test: Neurite length in late stage ALS disease, TDP-43-ALS (Example I-9); settings: final concentration 1 μM, added days 50 to 62 from start of differentiation induction, FIG. 14
Method: The efficacy of ropinirole was evaluated in the same manner as in Example I-8, except that the timing of adding ropinirole was changed to days 50 to 62 from the start of the differentiation induction of each iPS cell. It is assumed that days 50 to 62 after the start of induction of differentiation correspond to the late stage of the ALS disease.
Specifically, ropinirole was added to a medium of motor neurons induced to differentiate from iPS cells derived from ALS patients (FUS-ALS) having a mutation in FUS and motor neurons induced to differentiate from iPS cells derived from ALS patients (TDP-43-ALS) having a mutation in TDP-43 and the changes over time in the neurite length were measured. The measurement of neurite length was carried out in the same manner as in Example I-2. Ropinirole was added to the medium at a final concentration of 1 μM.
FIG. 14(a) is a graph showing the results of measurement of the changes over time in the neurite length of each motor neuron. In FIG. 14(a), the vertical axis represents the neurite length (relative value), the horizontal axis represents the number of days of culturing from the start of differentiation induction, and “+ROPI” represents the result of adding ropinirole to the medium. In addition, FIG. 14(b) is a graph enlarging the boxed portion of the graph of FIG. 14(a). […]

[7] = final concentration 1 μM, added days 35 to 40
[8] = final concentration 10 μM, added days 35 to 40

CCCN(CCC)CCc1cccc2c1CC(=O)N2 [Ropinirole, 4-(2-di-n-propylaminoethyl)-2(3H)-indole]
Neurite length improvement ratio ([1]; final concentration 0.1 nM): 3.22% | Neurite length improvement ratio ([1]; final concentration 1 nM): 32.3% | Neurite length improvement ratio ([1]; final concentration 10 nM): 45.8% | Neurite length improvement ratio ([1]; final concentration 0.1 μM, added days 35 to 40 from start of differentiation induction): 43.3% | Neurite length improvement ratio [1, 7]: 58.3% | Neurite length improvement ratio [1, 8]: 61.3% | Ectopic localization of FUS protein improvement ratio ([2]; final concentration 0.1 nM): 20.2% | Ectopic localization of FUS protein improvement ratio ([2]; final concentration 1 nM): 45.8% | Ectopic localization of FUS protein improvement ratio ([2]; final concentration 10 nM): 51.2% | Ectopic localization of FUS protein improvement ratio ([2]; final concentration 0.1 μM, added days 35 to 40): 55.8% | Ectopic localization of FUS protein improvement ratio [2, 7]: 54.3% | Ectopic localization of FUS protein improvement ratio [2, 8]: 74.4% | Neurite length reduction [3]: significantly suppressed | Ratio of CV caspase 3-positive neurons [4]: significantly reduced | LDH leakage ratio [5]: significantly decreased | Neurite length (changes over time), late stage [6]: neuroprotective action (maintenance of neurite length)
